Source: US5866087A, “Calixarene derivatives, their preparation process and their use for extracting actinides and lanthanides” (priority 1995, dated 1999)

Key:
[1] = liquid-liquid extraction from aqueous nitric solution, distribution coefficient D; type: physicochemical; conditions: calixarene 0.001M in nitrophenyloctylether, aqueous HNO3, NaNO3 4 mole/l; for D(distribution coefficient) 152-Eu: pH ≈0, 1 hour contacting; for D(distribution coefficient) 237-Np / D(distribution coefficient) 239-Pu / D(distribution coefficient) 241-Am: 1 hour, * = precipitation
Protocol: In these examples, an evaluation takes place of the effectiveness of the calixarenes of table 1 for extracting plutonium, neptunium and americium, as well as europium (simulating all the trivalent lanthanides) of an aqueous solution containing one of these elements. The composition of the aqueous solution is as follows:
[…] Contacting takes place in a 20 ml polypropylene tube, which undergoes stirring. After 1 hour of contacting, the two phases are allowed to settle and the activity of each phase is counted by liquid scintillation or α and γ spectrometries.
The distribution coefficient D is then determined and this corresponds to the ratio of the activity of actinide in the organic phase to the activity of actinide in the aqueous phase.

[2] = supported liquid membrane transport into aqueous reextraction solution; type: physicochemical
Excerpt: These examples use the second embodiment of the process according to the invention for extracting europium, neptunium, plutonium and americium from aqueous solutions having the same compositions as those used in examples 7 to 16. These examples use the device shown in the attached drawing.
This device comprises an enclosure 1 subdivided into two compartents 3 and 5 by a supported liquid membrane 7, constituted by a microporous polypropylene membrane marketed under the name CELGARD 2500 and having the following characteristics:
membrane thickness: 0.025 mm.
The pores of this membrane are filled with an organic phase constituted by nitrophenylhexyl ether incorporating 0.001 or 0.0001M of calixarene.
Compartment 3 contains 50 ml of aqueous solution (NaNO3 :4 mole/l, HNO3 : 1mole/l with Eu, Np, Pu, Am); and compartment 5 contains 50ml of an aqueous reextraction solution constituted by an aqueous solution with 1 mole/l of methylene diphosphonic acid.
The two solutions are stirred and the initial activity of the solution of compartment 3 is determined, followed by the activity of the aqueous reextraction solution of compartment 5 by liquid α spectrometry and the operation is continued for one day. From it is deduced the percentage of neptunium, plutonium, americium and europium recovered in the aqueous reextraction solution after 6 and 24 h.
The calixarenes used, the permeability (in cm h^-1) of the membrane to Np and Pu, as well as the %, at the end of 6 and 24 h,of Eu, Am, Np and Pu recovered are given in table 3.

[3] = 6 h, supported liquid membrane, 0.001 or 0.0001M calixarene (CMPO 10^-2 M)
[4] = 24 h, supported liquid membrane, 0.001 or 0.0001M calixarene (CMPO 10^-2 M)
[5] = CELGARD 2500 membrane, nitrophenylhexyl ether with 0.001 or 0.0001M calixarene (CMPO 10^-2 M), reextraction 1 mole/l methylene diphosphonic acid

Structure (SMILES)	D(distribution coefficient) 152-Eu [1]	D(distribution coefficient) 237-Np [1]	D(distribution coefficient) 239-Pu [1]	D(distribution coefficient) 241-Am [1]	Percentage transported in 6 h. 237 Np [2, 3]	Percentage transported in 6 h. 239 Pu [2, 3]	Percentage transported in 6 h. 241 Am [2, 3]	Percentage of 239Pu transported in 24 h [2, 4]	Percentage transported in 24 h. 237 Np [2, 4]	Percentage transported in 24 h. 241 Am [2, 4]	Permeability (cm/h) 237 Np [2, 5]	Permeability (cm/h) 239 Pu [2, 5]	Permeability (cm/h) 241 Am [2, 5]	Percentage transported in 6 h. 152 Eu [2, 3]	Percentage transported in 24 h. 152 Eu [2, 4]	Permeability (cm/h) 152 Eu [2, 5]
CCCCCCCCCCOc1c2cc(NC(=O)CP(=O)(c3ccccc3)c3ccccc3)cc1Cc1cc(NC(=O)CP(=O)(c3ccccc3)c3ccccc3)cc(c1OC)Cc1cc(NC(=O)CP(=O)(c3ccccc3)c3ccccc3)cc(c1OCCCCCCCCCC)Cc1cc(NC(=O)CP(=O)(c3ccccc3)c3ccccc3)cc(c1OC)C2 [Compound 6, 25, 27 didecyloxy-26,28-dimethoxy-5,11, 17,23-(diphenylphosphinoxido-acetamido) calix[4]arene]	> 100	3	130	240	49.4%	97.1%	94.2%	100%	68.3%	94.9%	1.6 cm/h	6.4 cm/h	2.9 cm/h	–	–	–
CCCCCCCCCCCCCCOc1c2cc(NC(=O)CP(=O)(c3ccccc3)c3ccccc3)cc1Cc1cc(NC(=O)CP(=O)(c3ccccc3)c3ccccc3)cc(c1OCCCCCCCCCCCCCC)Cc1cc(NC(=O)CP(=O)(c3ccccc3)c3ccccc3)cc(c1OCCCCCCCCCCCCCC)Cc1cc(NC(=O)CP(=O)(c3ccccc3)c3ccccc3)cc(c1OCCCCCCCCCCCCCC)C2 [Compound 3, tetra-O-tetradecyl tetrakis (diphenyl-phosphinoxidoacetamido)calix[4]arene]	> 100	1.8	90	> 100	54%	84%	98%	88%	62%	100%	1.3 cm/h	2.95 cm/h	5.3 cm/h	90%	98%	2.8 cm/h
